# From patent publication US20250388597A1, “BIFUNCTIONAL PHOTOCROSSLINKING PROBES FOR COVALENT CAPTURE OF PROTEIN-NUCLEIC ACID COMPLEXES IN CELLS” (UNIVERSITY OF SOUTHERN CALIFORNIA, priority 2022, published 2025)
# “Also recorded” adds a separate entry of the source.
# Target: T1, NFAT1/DNA complex (Homo sapiens, UniProt Q13469)
# T1 construct: human NFAT1 protein (residue 399-676, NFAT1-DBD)
# T1 sequence (Q13469 399-676): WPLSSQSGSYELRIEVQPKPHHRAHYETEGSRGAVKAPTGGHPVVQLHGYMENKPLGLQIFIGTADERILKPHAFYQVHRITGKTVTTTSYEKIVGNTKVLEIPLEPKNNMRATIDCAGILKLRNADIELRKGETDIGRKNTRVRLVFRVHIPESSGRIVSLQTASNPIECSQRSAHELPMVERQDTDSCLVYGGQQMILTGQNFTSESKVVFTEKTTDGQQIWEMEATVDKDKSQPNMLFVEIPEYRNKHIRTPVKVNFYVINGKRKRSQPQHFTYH
# Assay: In vitro photo-crosslinking of assembled NFAT1/DNA complex, denaturing SDS gel
# Type: biochemical
# Details: for formation of covalent NFAT1/DNA crosslinked complex stable under denaturing SDS-PAGE: probe + UV 365 nm, 2% SDS, boil 10 min
# Method: The probe binding and UV crosslinking were carried out as described in FIG. 5G and FIG. 7. The crosslinked complexes (lane 3 and lane 6) were further treated with DTT (100 mM, heat 50 degree C. for 30 min). The reaction mixtures were run on SDS gel and visualized by FAM fluorescence for DNA (top) and by Coomassie blue stain for protein (bottom) as described in FIG. 7. FIG. 7 depicts denaturing SDS gel analysis of covalent capture of in vitro assembled MEF2/DNA and NFAT1/DNA complexes by the BFPX probe, SPB-AAD. […] The protein/DNA complexes are incubated at room temperature for 30 min, and treated with various combination of BFPX probe (SPB-AAD) and UV illumination as described in FIG. 5G. […] The reaction mixtures were added SDS loading dye (2% SDS), boil for 10 min, and run on SDS gel (Bio-Rad Any Kd gradient gel). The same gel was visualized by FAM fluorescence for DNA (top) and by Coomassie blue stain for protein (bottom). FIG. 8C depicts denaturing SDS gel analysis of covalent capture of in vitro assembled MEF2/DNA and NFAT1/DNA complexes by the BFPX probe, SPB-PEG3-AAD. […] The reaction mixtures were run on SDS gel and visualized by FAM fluorescence for DNA (top) and by Coomassie blue stain for protein (bottom) as described in FIG. 7. […] Typically protein and DNA are mixed to bind at room temperature for 30 min, followed by addition of BFPX probes for an additional 15 min and then UV illumination. In the case of FA treatment, the reaction time is 10 min at room temperature and then quenched by 250 mM glycine. […] The UV illumination (as indicated by a positive sign) was carried out using a LED Chip (21.4 mm×21.4 mm, 365-370 nm, 30 Watt, sample distance 2 cm, exposure time 2-15 min at 4 degree C., here the exposure time is 15 min). […] The small amount of single stranded DNA is due to incomplete annealing. The higher smearing bands are most likely non-specific protein complexes. Neither of these experimental imperfections affected the main conclusion of this experiment because the double stranded-DNA bands and the specific NFAT-DNA complex bands (the middle sharp bands) are well defined and can be monitored without the interference of the other bands. […] The gel was visualized by Cy5 fluorescence for DNA. FIG. 12E depicts further characterization of BFPX crosslinking of NFAT1/DNA complexes using different DNA substrates and staining techniques. Two unlabeled DNA substrates containing a core NFAT-binding site and different flanking bases and sequence lengths ([…] ID NO: 4), 21 mer, c2: [NT] ID NO: 5), 16 mer) were used to bind the NFAT1-DBD as described in FIG. 12C. […] The reactions were then analyzed by SDS PAGE under denaturing condition as described in FIG. 12D. Because the DNA is unlabeled, the gel was stained using either cyanine-based dye (SYBR Safe) or Coomassie Blue stain (CB). […] The different size of the NFAT-c1DNA complexes (lane 2) and NFAT-c2DNA complexes (lane 4) was resolved by loading reactions of lane 2 (2a, 2b and 2c) and lane 4 (4a, 4b and 4c) as triplicates side-by-side on the same gel (lower panel) using either SYBR and CB stain. FIG. 12F depicts time course of BFPX crosslinking of NFAT1/DNA complexes. […] The reactions at different time points were then analyzed on SDS gel as described in FIG. 12D. […] When the UV exposure time is longer than 5 min, a significant amount of crosslinked NFAT-DNA complex can be formed with UV illumination without SPB-AAD.
Compound,"low probe concentration at which a significant amount of crosslinked protein complex was observed (NFAT1/DNA, FIG. 7 lane 12, UV 365 nm)","UV illumination time at which crosslinked complex was visible (NFAT1/DNA, probe 100 μM)","UV illumination time at which crosslinking reached plateau (NFAT1/DNA, probe 100 μM, plateau around 100 seconds and 5 min time points)",formation of covalent NFAT1/DNA crosslinked complex stable under denaturing SDS-PAGE
"C#CCCC1(CCNC(=O)CCCOc2c3occc3cc3ccc(=O)oc23)N=N1 [SPB-AAD, N-(2-(3-(but-3-yn-1-yl)-3H-diazirin-3-yl)ethyl)-4-((7-oxo-7H-furo[3,2-g]chromen-9-yl)oxy)butanamide]",0.125 µM,3 s,around 100 seconds,dosage dependent crosslinking of NFAT1/DNA complexes; also recorded: formation of complexes that run as larger molecular species than both free protein and DNA; also recorded: NFAT was crosslinked to c1 DNA (lane 2) and c2 DNA (lane 4) in the presence of UV
"C#CCCC1(CCNC(=O)CCOCCOCCOCCOCCNC(=O)CCCOc2c3occc3cc3ccc(=O)oc23)N=N1 [SPB-PEG4-AAD, N-(2-(3-(but-3-yn-1-yl)-3H-diazirin-3-yl)ethyl)-1-(4-((7-oxo-7H-furo[3,2-g]chromen-9-yl)oxy)butanamido)-3,6,9,12-tetraoxapentadecan-15-amide]",,,,dosage dependent crosslinking of NFAT1/DNA complexes
C#CCCC1(CCNC(=O)CCOCCOCCOCCC(=O)NCCNC(=O)CCCOc2c3occc3cc3ccc(=O)oc23)N=N1 [SPB-PEG3-AAD],,,,highly efficient crosslinking
